This is an account of results in patent publication US8273340B2, “Methods and compositions for attracting or repelling cockroaches” (The United States of America, as represented by the …, priority 2008, dated 2012).

Marks after values point to notes of the source that are not given here.

The subject of data set [1] is Male cockroaches (Blattela germanica). The experiment in a line: Y-tube olfactometer bioassay, test compound in mineral oil on filter paper. The data set is classed as in vivo. As to conditions: 0.5% w/v solution in mineral oil; mean of 3 replicates; 65% or more = significantly attractive (*), 35% or less = significantly repellent (**). The text has this: The German cockroach (Blattela germanica) is one of the most difficult cockroach species to control in homes and was used to illustrate the invention. […] Since the cockroaches never contact the test sample, their response is strictly to the molecules in the air stream.
(§1) Olfactometer Bioassay: The Y-tube bioassay apparatus was similar to that described by Vander Meer et al. (J. Chem. Ecol., 14: 825-838 (1988)). Compressed air (breathing-air quality) was passed into the two choice arms at 0.2 l/min for a total flow of 0.4 l/min. Flow rates were adjusted and controlled by two flow meters (Omega Engineering, Inc.). All tubing carrying the air was either copper or Teflon. Prior to evaluating treatment samples, a positive standard was put through the bioassay procedure. […] Test samples (10.0 μl) and the solvent blank (mineral oil, 10.0 μl) were applied to filter paper strips (0.3×1.0 cm, Whatman No. 1) and then each was placed into one of the two choice arms. Male cockroaches (Blattela germanica) were prepared for their introduction into the olfactometer by placing them in a Teflon tube (3 cm×0.8 cm) that had one end blocked with a piece of copper mesh screen. The open end of tube was closed with a lightly attached piece of tape. The cockroaches were introduced individually by removing the tape and quickly inserting the Teflon tube into the entrance arm of the olfactometer. […] The initial choice of the cockroach was recorded. The cockroach was removed and the process was repeated 10 times with the same test and blank samples. The 10 choices usually required less than 5 minutes to complete. After each set of 10 cockroaches had made their choice, the olfactometer was rinsed with acetone, dried, and reassembled for the next test. Each sample was retested with the same cockroaches, but with the sample and control in reverse positions. The sum of the results from the two tests represented one replicate. This procedure minimized bias inherent in the apparatus. A null hypothesis of equal numbers of cockroaches in each arm was tested with chi-square analysis. […] Results in-between were neutral.
The diameter of the Y part of the olfactometer provided a close fit for the cockroach, thus keeping it in the center of the walkway.

Data set [2] has the same test system. The data set is described as follows: Y-tube olfactometer bioassay of controlled release pellets aged in a fume hood. The data set is classed as in vivo. As to conditions: for Percent Response: mean of 3 replicates; for activity in the olfactometer (in words): charcoal as the absorbent, after one hour in the fume hood.
Description: as §1, with “procedure. The standard was initially an attractive food material (grape flavoring concentrate used at 0.33%) and later 0.5% (w/v) methyl tiglate, one of the compounds of the present invention, in white, light mineral oil (Aldrich Chemical Co.).” for “procedure.”
Controlled Release Formulations: Four esters found to be significant cockroach attractants were selected for evaluation in controlled release formulations-developed by BioGuard, Inc. Six controlled release formulations from BioGuard were evaluated in the olfactometer. The attractants were methyl tiglate, butyl hexanoate, propyl propanoate, and butyl heptanoate. The attractants were absorbed to either coconut shell charcoal pellets or potassium substituted crystalline zeolite pellets, and then coated with water soluble methylcellulose. The powdered methyl cellulose was dissolved in 80° C. water until saturation, cooled to approx 25° C., the pellets immersed into the solution for a 30 sec, and removed and rapidly air dried with 30° C. pre-dried air. The end products were pellets (charcoal=2 mm×4 mm dia.; molecular sieve=4 mm×1.5 mm dia.). […] A single pellet was used in place of the filter paper described above. The control side was left blank.

Data set [3] in a line: Release rate of attractants from sustained release delivery systems. The data set is classed as physicochemical. The source says: Several secondary release rate control systems were developed. The first was a sachet that can contain the above polymer releasing system. This sachet can be either polyvinylidine chloride (PvdC) barrier film (e.g., Saranex™) enclosed in a thermally sealed metalized polyethylene container to eliminate release of active compounds, or a metalized polyethylene sachet with a removable seal that covers a vapor diffusion controlling orifice which when removed begins the release process from the internal polymer/carrier, or metalized polyethylene sachet which contains a small vial with a vapor controlling orifice. In the case of the Saranex™ sachet, the actual porosity of the Saranex™ control release is based on type of PVdC and thickness of the film. In the case of the metalized polyethylene sachet and internal polymer/carrier, a specific orifice size controlled the rate of diffusion of the active from the device, as shown in FIG. 4. An additional means of containing and reducing the release of the liquid active compounds and providing a solid support for use in the above delivery system involved sorbing the active compounds into an inert absorbent such as Membrana GmbH's expanded microporous polyolefin Accurel® MP100 which are granular or pelletized polyethylenes that have 10-50 μm air pockets throughout and can contain up to 90% of their volume in active compounds . MP100 was easily loaded with 80% by wt active ingredient due to its porosity. […] Thus, placement into the metalized polyethylene sachet with its diffusion regulating orifice was required.
Active compounds (1 gm active in Accurel® MP100) were sealed within the metalized polyethylene sachet, and a 0.5 mm hole placed into the film, and sealed until use with a metalized tape. Release rates for propyl propanoate, methyl tiglate, and butyl hexanoate were calculated at 15.5, 11.4, and 4.8 mg/day, respectively. Longevity of this system was calculated to be 64, 87, and 208 days, respectively.
Release rates for the thermoset urethane (Flexane® 80P) and synthetic rubbers systems ranged from 0.055 to 0.2 mg/cm^2/day, depending on durometer/hardness that is a measure of polymer crosslinking. Best results were obtained at durometer/hardness levels above D30. Release rates for the Saranex system without the release control provided by the metalized polyethylene and diffusion control orifice were 187, 236, and 7 mg/day for propyl propanoate, methyl tiglate, and butyl hexanoate, respectively.

Data set [4] concerns German roaches (B. germanica). The experiment in a line: Two-harborage arena bioassay of sustained release polymer formulations. In kind it is in vivo. The conditions noted are these: formulated with Santoprene; counted after 24 hours. The source says:
Evaluation of sustained release formulations: Three cockroach attractants (methyl tiglate, butyl heptanoate, and propyl proprionate) were formulated in one or more polymer formulations (Urethane, Pellethane, Santoprene, and/or Polyethylene) as indicated in Table 4.A sweater box (1.5×2.0×0.5 ft) provided the test arena. The sides of the arena were coated with a blend of mineral oil and Vaseline petroleum jelly. The tops of two 8 oz paper ice cream cups were tapped to the arena floor with masking tape and, prior to the addition of the test cockroaches, inverted cups without holes were fixed to the tapped lids. Twenty-five laboratory reared late stage nymphs or adult male German roaches (B. germanica), starved for 72 hrs, were added to the arena and allowed to calm down (ca. 1 hour). The starting inverted ice cream cups were carefully removed and each ice cream cup top was then supplied with a water tube (1.5 ml scintillation vial with water and stoppered with cotton), one lab chew food pellet, and either a test attractant polymer formulation or the corresponding polymer blank control. […] The cups were oriented so that the holes were facing each other. The number of roaches that sought harborage in the cups was counted after 24 hours by plugging the entrance holes with cotton, the roaches inside euthanized, and the numbers in each cup counted.

Data set [5] deals with cockroach. The experiment in a line: Bioassays for cockroach attraction of attractants sorbed into thermoplastic polymers. In kind it is in vivo. The text has this: To alleviate the reactivity with the carrier polymers, we attempted to load active compounds into a series of thermoplastic polymers including urethanes and synthetic rubbers, based on the behavior of the active compounds as plasticizers. […] Propyl propanoate, methyl hexanoate, and methyl tiglate were loaded into a series of thermoplastic granulated feed materials, including 4-(1,1,3,3-tetramethylbutyl) with ethylene-5-ethylidenebicyclo[2.2.1]hept-2-ene-propene thermoplastic synthetic rubber (Santopren™ 203-40). Santoprene™ is a thermoplastic elastomer (TPE that is a mixture of in-situ cross linking of EPDM rubber and polypropylene compounds). Because of the longer life of Santopren™ in both extreme hot and cold environments, it is often preferred over the use of rubber. Pellethane™ 2102-55D is a polyester polycaprolactone polyurethane. Methyl hexanoate and methyl tiglate were sorbed using heat and pressure (60° C., 40 psi, 30 min) into the Santoprene® and were effective in bioassays for cockroach attraction. […] Loading rates of active compounds into the Santoprene®, using slightly elevated temperature (60° C.) and 40 psi pressure, were 8-12% by wt for the two compounds.

The mark [6] stands for this setting: Charcoal absorbent, methylcellulose coated pellet, aged 1 hour in fume hood.
The mark [7] stands for this setting: charcoal controlled release formulation, aged 24 hours in fume hood.
Where [8] appears, read: charcoal controlled release formulation, aged 48 hours in fume hood.

Regarding `CCCCOC(C)=O` [Butyl Acetate], the “Percent Response” value in data set [1] is 45.0%.
Still for that read-out and setting: the result for `CCCCOC(=O)CCC` [Butyl Butanoate] reads 35.0** %.
Turning to `CCCCCCC(=O)OCCCC` [Butyl Heptanoate], the “Percent Response” value in data set [1] is 80.0* %; in data set [2] (setting [6]) it was 70.0%; in data set [2] (setting [7]), 61.6%; in data set [2] (setting [8]) it was 58.3%. Also, in data set [2], the “activity in the olfactometer (in words)” value was “significantly active”.
On to `CCCCCC(=O)OCCCC` [Butyl Hexanoate], for which the “Percent Response” value was 75.0* % in data set [1], 82.0% in data set [2] (setting [6]), 70.0% in data set [2] (setting [7]) and 61.6% in data set [2] (setting [8]). For the same molecule, the “activity in the olfactometer (in words)” value in data set [2] was “significantly active”. The “Longevity of the release system” value in data set [3] (1 gm active in Accurel MP100 in metalized polyethylene sachet with 0.5 mm hole) is on record as 208 days. Moreover, the Release rate in data set [3] (1 gm active in Accurel MP100 in metalized polyethylene sachet with 0.5 mm hole, FIG. 3) was determined as 4.8 mg/day; in data set [3] (Saranex system without metalized polyethylene and diffusion control orifice), 7 mg/day. Moreover, in data set [4], the “attraction to treatment harborage versus polymer blank control (in words)” value is “significant attraction and subsequent aggregation”.
For the molecule `CCCCCCCCC(=O)OCCCC` [Butyl Nonanoate], the “Percent Response” value in data set [1] was determined as 40.0%.
Turning to `CCCCCCCC(=O)OCCCC` [Butyl Octanoate], in data set [1], the “Percent Response” value is on record as 55.0%.
`CCCCOC(=O)CCCC` [Butyl Pentanoate]: the “Percent Response” value in data set [1] is recorded as 50.0%.
With `CCCCOC(=O)CC` [Butyl Propanoate], the “Percent Response” value in data set [1] is reported as 15.0** %.
Still for that read-out and setting: the result for `CCCC(=O)OCC` [Ethyl Butyrate] reads 63.3%; that for `CCCCCCC(=O)OCC` [Ethyl Heptanoate], 40.0%.
With `CCCCCC(=O)OCC` [Ethyl Hexanoate], the “Percent Response” value in data set [1] was 75.0* %.
As to `CCCCCCCC(=O)OCC` [Ethyl Octanoate], the “Percent Response” value in data set [1] is given as 50.0%.
On the same count and under the same terms, in the case of `CCCCC(=O)OCC` [Ethyl Pentanoate] it was 65.0* %; in that of `CCOC(=O)CC` [Ethyl Propanoate], 65.0* %.
Same read-out and setting: the result for `CCCCCCOC(=O)CCC` [Hexyl Butanoate] reads 35.0** %.
The same measure, in the same setting: the result for `CCCC(=O)OC` [Methyl Butanoate] reads 55.0%.
As for `CCCCCCCCCC(=O)OC` [Methyl Decanoate], the “Percent Response” value in data set [1] came to 55.0%.
For the molecule `CCCCCCCCCCCC(=O)OC` [Methyl Dodecanoate], the “Percent Response” value in data set [1] amounted to 45.0%.
For the molecule `CCCCCCC(=O)OC` [Methyl Heptanoate], the “Percent Response” value in data set [1] is 50.0%.
`CCCCCC(=O)OC` [Methyl Hexanoate]: the “Percent Response” value in data set [1] came to 45.0%. For the same molecule, the “effect in bioassays for cockroach attraction (in words)” value in data set [5] (loaded into Dow Pellethane) is listed as “worked less well”; in data set [5] (sorbed into Santoprene (60° C., 40 psi, 30 min)), “effective”.
On to `CCCCCCCCC(=O)OC` [Methyl Nonanoate], for which the “Percent Response” value in data set [1] was determined as 45.0%.
Regarding `CCCCC(=O)OC` [Methyl Pentanoate], in data set [1], the “Percent Response” value is recorded as 50.0%.
Same read-out and setting: in the case of `CCC(=O)OC` [Methyl Propanoate] it was 60.0%.
Take `CCCCCCCCCCC(=O)OC` [Methyl Undecanoate]: the “Percent Response” value in data set [1] was found to be 45.0%.
Still for that read-out and setting: in the case of `CCCOC(=O)CCC` [Propyl Butanoate] it was 35.0** %.
For the molecule `CCCOC(C)=O` [Propyl acetate], the “Percent Response” value in data set [1] is recorded as 40.0%.
